{
  "source": "patent US4221805A",
  "about": "“Method of inducing platelet antiaggregation activity” (priority 1978, dated 1980)",
  "key": {"[1]": {"experiment": "Acute toxicity in mice, endoperitoneal administration (LD50)", "assay_type": "in vivo", "details": "mouse, in vivo, ip", "procedure": "(§1) A total of 240 albino mice, 120 male and 120 female, of the Swiss strain and having an average weight of about 20 grams were used. The animals were divided into groups of 10 animals each, and kept caged for some days in an environment at a constant temperature (21°±1° C.) and humidity (60±5%). They were then fasted for 24 hours before the experiment, but were given free access to water.\n(§2) The substance indicated by MRAP2 was administered, in a single administration, either orally or endoperitoneally. The LD50 was evaluated for each of the administration methods, using the method of Litchfield and Wilcoxon, J.Pharmacology, 96, 99, […], based on the mortality recorded for each group of mice over the seven days following administration.\n(§3) Six groups of 20 animals, 10 male and 10 female, which had been given the active principle dissolved in a physiological solution were used."}, "[2]": {"test_system": "mice", "experiment": "Acute toxicity in mice, endoperitoneal administration (LD50)", "assay_type": "in vivo", "details": "20 animals per dose", "procedure": "as §1, §2, §3"}, "[3]": {"test_system": "stomach (gastric lesion)", "experiment": "Ulcerogenic activity in rats after prolonged administration", "assay_type": "in vivo, male albino rats, Wistar strain", "procedure": "The ulcerogenic activity of MRAP2 was tested both after a single administration of the drug, and after prolonged administration. In these tests, a total of 70 male albino rats of Wistar strain were used, having a weight of 200±20 grams. The MRAP2 was administered diluted in tap water. The points given for gastric ulcerative lesions were as follows: (0) no lesion; (1) hyperaemia or slight capillary obstruction; or slight loss of the epithelium; or some petechiae even with pale mucosa without hyperaemia; (2) diffuse capillary obstructions or numerous petechiae; or diffuse loss of the epithelium; of a few surface lesions; (3) strong submucosa haemorrhage; or many petechiae and small surface lesions; or much anaemic mucosa (yellowish colour); or up to three small ulcers; (4) general pattern as in the previous numbers, plus up to ten small ulcers; or long erosions; or up to three medium sized ulcers; (5) pattern as in number 4, with up to 15 small ulcers; or up to 6 large ulcers; (6) pattern as previously, with up to ten large ulcers, plus small ulcers; (7) pattern as previously, plus up to ten large ulcers and small ulcers; cases of perforated ulcers. 30 Rats were divided into three batches of ten animals each, and subjected daily over a period of six days to the following oral treatment: 1st group: controls 2nd group: MRAP2 (50 mg/kg) 3rd group: MRAP2 (125 mg/kg) Six hours after the last treatment, the animals were killed and the lesion index was evaluated following the techniques and methods previously described."}, "[4]": {"test_system": "cardiovascular system of cats", "experiment": "Effect on the cardiovascular system of cats", "assay_type": "in vivo", "details": "intravenous 5 mg/kg", "procedure": "Three cats weighing 2.4-2.6 kg were used for this test. The MRAP2 was administered intravenously in a dose of 5 mg/kg, carried in a sterile physiological solution. The animals, under combined anaesthesia with ethylurethane and diallylbarbituric acid, were subjected to measurements, by means of the Battaglia-Rangoni polygraph, of the arterial pressure, the cardiac frequency, the nictitation and the electrocardiac activity, before and up to two hours after the administration of the drug."}, "[5]": {"experiment": "Acute toxicity in rats, endoperitoneal administration (LD50)", "assay_type": "in vivo", "details": "rat, in vivo, ip", "procedure": "(§4) 200 albino rats, 100 male and 100 female, of the Wistar strain and weighing 130-150 grams were divided into groups of 10 animals each.\n(§5) After being caged for some days at constant temperature (21°±1° C.) and humidity (60±5%), the animals were fasted for 24 hours before treatment.\n(§6) The MRAP2 was administered in a single administration either orally or endoperitoneally, following the method heretofore described.\n(§7) Teh LD50 was evaluated for each method of administration using the Litchfield and Wilcoxon method, based on the percentage mortality recorded in each group of rats during the seven days following treatment.\n(§8) Five groups of 20 animals, 10 male and 10 female were used."}, "[6]": {"test_system": "rats", "experiment": "Acute toxicity in rats, endoperitoneal administration (LD50)", "assay_type": "in vivo", "details": "20 animals per dose", "procedure": "as §4, §5, §6, §7, §8"}, "[7]": {"experiment": "Acute toxicity in mice, oral administration (LD50)", "assay_type": "in vivo", "details": "mouse, in vivo", "procedure": "as §1, §2\n(§9) Six groups of 20 animals, 10 male and 10 female, which had been given MRAP2 dissolved in tap water were used, the method utilised being gastric catheterisation."}, "[8]": {"test_system": "mice", "experiment": "Acute toxicity in mice, oral administration (LD50)", "assay_type": "in vivo", "details": "20 animals per dose", "procedure": "as §1, §2, §9"}, "[9]": {"experiment": "Acute toxicity in rats, oral administration (LD50)", "assay_type": "in vivo", "details": "rat, in vivo", "procedure": "as §4, §5, §6, §7, §8"}, "[10]": {"test_system": "rats", "experiment": "Acute toxicity in rats, oral administration (LD50)", "assay_type": "in vivo", "details": "20 animals per dose", "procedure": "as §4, §5, §6, §7, §8"}},
  "data": [
    {"compound": "Cl.Clc1ccccc1CN1CCCC1", "note": "[MRAP2, N-(2-chlorobenzyl)-pyrrolidine hydrochloride]", "values": [
      {"measurement": "mortality at 168 h", "setting": "[1]; 75 mg/kg", "value": 0, "unit": "%"},
      {"measurement": "mortality at 168 h", "setting": "[1]; 100 mg/kg", "value": 10, "unit": "%"},
      {"measurement": "mortality at 168 h", "setting": "[1]; 150 mg/kg", "value": 90, "unit": "%"},
      {"measurement": "mortality at 168 h", "setting": "[1]; 200 mg/kg", "value": 100, "unit": "%"},
      {"measurement": "mortality at 168 h", "setting": "[1]; 300 mg/kg", "value": 100, "unit": "%"},
      {"measurement": "mortality at 168 h", "setting": "[1]; 400 mg/kg", "value": 100, "unit": "%"},
      {"measurement": "LD50 at 168 h", "setting": "[1]; single administration, 7 days, 95% limits 105-130", "value": 116, "unit": "mg/kg"},
      {"measurement": "No. of animals dead", "setting": "[2]; 75 mg/kg", "value": 0},
      {"measurement": "No. of animals dead", "setting": "[2]; 100 mg/kg", "value": 2},
      {"measurement": "No. of animals dead", "setting": "[2]; 150 mg/kg", "value": 18},
      {"measurement": "No. of animals dead", "setting": "[2]; 200 mg/kg", "value": 20},
      {"measurement": "No. of animals dead", "setting": "[2]; 300 mg/kg", "value": 20},
      {"measurement": "No. of animals dead", "setting": "[2]; 400 mg/kg", "value": 20},
      {"measurement": "Average degree of lesion ± E.E.", "setting": "[3]; oral 50 mg/kg daily for six days, scale 0-7, controls 0.57 ± 0.1", "value": "0.86 ± 0.2"},
      {"measurement": "Average degree of lesion ± E.E.", "setting": "[3]; oral 125 mg/kg daily for six days, scale 0-7, controls 0.57 ± 0.1, P <0.05 with regard to controls", "value": "1.07 ± 0.2"},
      {"measurement": "ulcerogenic activity (in words)", "setting": "[3]; oral daily for six days", "value": "significant only at a dose of 125 mg/kg, but even then only slight"},
      {"measurement": "hypertensive effect", "setting": "[4]; in the four minutes following introduction of the drug", "value": "slight hypertensive effect"},
      {"measurement": "undesirable effects on the cardiovascular system", "setting": "[4]; up to two hours", "value": "does not give rise to any undesirable effects on the cardiovascular system"},
      {"measurement": "mortality at 168 h", "setting": "[5]; 50 mg/kg", "value": 0, "unit": "%"},
      {"measurement": "mortality at 168 h", "setting": "[5]; 100 mg/kg", "value": 5, "unit": "%"},
      {"measurement": "mortality at 168 h", "setting": "[5]; 200 mg/kg", "value": 55, "unit": "%"},
      {"measurement": "mortality at 168 h", "setting": "[5]; 300 mg/kg", "value": 85, "unit": "%"},
      {"measurement": "mortality at 168 h", "setting": "[5]; 400 mg/kg", "value": 100, "unit": "%"},
      {"measurement": "LD50 at 168 h", "setting": "[5]; single administration, 7 days, 95% limits 174-203", "value": 188, "unit": "mg/kg"},
      {"measurement": "No. of animals dead", "setting": "[6]; 50 mg/kg", "value": 0},
      {"measurement": "No. of animals dead", "setting": "[6]; 100 mg/kg", "value": 1},
      {"measurement": "No. of animals dead", "setting": "[6]; 200 mg/kg", "value": 11},
      {"measurement": "No. of animals dead", "setting": "[6]; 300 mg/kg", "value": 17},
      {"measurement": "No. of animals dead", "setting": "[6]; 400 mg/kg", "value": 20},
      {"measurement": "mortality at 168 h", "setting": "[7]; 300 mg/kg", "value": 0, "unit": "%"},
      {"measurement": "mortality at 168 h", "setting": "[7]; 400 mg/kg", "value": 20, "unit": "%"},
      {"measurement": "mortality at 168 h", "setting": "[7]; 500 mg/kg", "value": 45, "unit": "%"},
      {"measurement": "mortality at 168 h", "setting": "[7]; 600 mg/kg", "value": 60, "unit": "%"},
      {"measurement": "mortality at 168 h", "setting": "[7]; 800 mg/kg", "value": 100, "unit": "%"},
      {"measurement": "mortality at 168 h", "setting": "[7]; 1000 mg/kg", "value": 100, "unit": "%"},
      {"measurement": "LD50 at 168 h", "setting": "[7]; single administration, 7 days, 95% limits 515-561", "value": 536, "unit": "mg/kg"},
      {"measurement": "No. of animals dead", "setting": "[8]; 300 mg/kg", "value": 0},
      {"measurement": "No. of animals dead", "setting": "[8]; 400 mg/kg", "value": 4},
      {"measurement": "No. of animals dead", "setting": "[8]; 500 mg/kg", "value": 9},
      {"measurement": "No. of animals dead", "setting": "[8]; 600 mg/kg", "value": 12},
      {"measurement": "No. of animals dead", "setting": "[8]; 800 mg/kg", "value": 20},
      {"measurement": "No. of animals dead", "setting": "[8]; 1000 mg/kg", "value": 20},
      {"measurement": "mortality at 168 h", "setting": "[9]; 400 mg/kg", "value": 0, "unit": "%"},
      {"measurement": "mortality at 168 h", "setting": "[9]; 500 mg/kg", "value": 20, "unit": "%"},
      {"measurement": "mortality at 168 h", "setting": "[9]; 600 mg/kg", "value": 40, "unit": "%"},
      {"measurement": "mortality at 168 h", "setting": "[9]; 800 mg/kg", "value": 75, "unit": "%"},
      {"measurement": "mortality at 168 h", "setting": "[9]; 1000 mg/kg", "value": 100, "unit": "%"},
      {"measurement": "LD50 at 168 h", "setting": "[9]; single administration, 7 days, 95% limits 631-714", "value": 675, "unit": "mg/kg"},
      {"measurement": "No. of animals dead", "setting": "[10]; 400 mg/kg", "value": 0},
      {"measurement": "No. of animals dead", "setting": "[10]; 500 mg/kg", "value": 4},
      {"measurement": "No. of animals dead", "setting": "[10]; 600 mg/kg", "value": 8},
      {"measurement": "No. of animals dead", "setting": "[10]; 800 mg/kg", "value": 15},
      {"measurement": "No. of animals dead", "setting": "[10]; 1000 mg/kg", "value": 20}
    ]}
  ]
}
